SMILES strings stand for the structures.

The IC50 is the concentration that gives 50% inhibition. The low end stands for higher potency, the high end for lower potency.

One assay addresses T1, Beta-glucuronidase (Bos taurus, UniProt A3KMY8).
T1 sequence (A3KMY8 whole entry): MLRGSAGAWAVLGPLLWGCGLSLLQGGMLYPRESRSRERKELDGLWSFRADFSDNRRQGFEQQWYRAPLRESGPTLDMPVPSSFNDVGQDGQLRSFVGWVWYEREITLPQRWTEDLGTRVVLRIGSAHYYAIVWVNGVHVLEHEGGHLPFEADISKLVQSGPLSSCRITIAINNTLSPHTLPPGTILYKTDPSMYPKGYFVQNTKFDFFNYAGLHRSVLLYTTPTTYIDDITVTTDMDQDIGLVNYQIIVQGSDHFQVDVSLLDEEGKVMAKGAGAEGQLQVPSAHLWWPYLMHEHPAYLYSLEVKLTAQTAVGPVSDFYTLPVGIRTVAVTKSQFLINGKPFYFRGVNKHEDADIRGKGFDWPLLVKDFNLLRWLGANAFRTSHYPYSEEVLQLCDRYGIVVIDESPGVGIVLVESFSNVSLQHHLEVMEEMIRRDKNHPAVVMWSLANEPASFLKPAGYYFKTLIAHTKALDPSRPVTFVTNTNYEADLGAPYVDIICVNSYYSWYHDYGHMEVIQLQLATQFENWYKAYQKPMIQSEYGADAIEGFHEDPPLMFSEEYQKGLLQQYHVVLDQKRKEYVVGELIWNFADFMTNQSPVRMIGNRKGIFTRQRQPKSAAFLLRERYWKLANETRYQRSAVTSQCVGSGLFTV
Briefly: Inhibition of bovine liver beta-glucuronidase using p-nitrophenyl-beta-D-glucuronide as substrate preincubated for 30 mins followed by substrate addition by spectrophotometric analysis.
For the compound `COc1ccc(S(=O)(=O)Nc2cccc3cccnc23)cc1OC`, the half-inhibitory concentration (IC50) amounted to 42.6 µM.
`COc1ccc(Br)cc1S(=O)(=O)Nc1cnc2ccccc2c1` returned a half-inhibitory concentration (IC50) of 66.5 µM.
Same read-out and setting: to `CCCc1ccc(S(=O)(=O)Nc2cnc3ccccc3c2)cc1` belongs 27.2 µM; to `O=[N+]([O-])c1ccc(S(=O)(=O)Oc2cccc3cccnc23)cc1`, 15.4 µM; to `Cc1cc(S(=O)(=O)Nc2cccc3cccnc23)c(C)cc1Cl`, 24.5 µM.
The same measure, in the same setting: to `COc1ccc(S(=O)(=O)Nc2cccc3cccnc23)cc1` belongs 49.2 µM.
Still for that read-out and setting: the figure for `O=S(=O)(Nc1cccc2ncccc12)c1cc(Cl)ccc1Cl` is 4.5 µM.
On to `CCCCCCCCS(=O)(=O)Nc1cnc2ccccc2c1`, for which the IC50 came to 75.1 µM.
Still for that read-out and setting: to `O=[N+]([O-])c1cccc(S(=O)(=O)Nc2cccc3ncccc23)c1` belongs 12.2 µM.
On the same count and under the same terms, the figure for `O=S(=O)(Nc1cnc2ccccc2c1)c1ccccc1` is 53.4 µM.
Still for that read-out and setting: to `O=[N+]([O-])c1ccc(S(=O)(=O)Nc2cnc3ccccc3c2)cc1` belongs 31.6 µM; to `O=S(=O)(Nc1cnc2ccccc2c1)c1cc(Cl)ccc1Cl`, 5.5 µM; to `O=[N+]([O-])c1ccccc1S(=O)(=O)Nc1cnc2ccccc2c1`, 8.1 µM.
Compound `O=S(=O)(Nc1cccc2cccnc12)c1ccccc1` came in with an IC50 of 66.4 µM.
Compound `O=[N+]([O-])c1ccccc1S(=O)(=O)Oc1cccc2cccnc12` registered a half-maximal inhibitory concentration (IC50) of 6.4 µM.
The same measure, in the same setting: to `O=S(=O)(Oc1cccc2cccnc12)c1ccc(Cl)cc1Cl` belongs 9.7 µM; to `O=[N+]([O-])c1cccc(S(=O)(=O)Nc2cnc3ccccc3c2)c1`, 46.2 µM; to `O=S(=O)(Nc1cccc2ncccc12)c1ccc(Cl)cc1Cl`, 2.1 µM.
Same read-out and setting: to `COc1ccc(-c2nc3ccccc3c(=O)[nH]2)cc1O` belongs 2.8 µM.
`CCCc1ccc(S(=O)(=O)Oc2cccc3cccnc23)cc1` displayed an IC50 of 84.4 µM.
`CS(=O)(=O)Nc1cccc2cccnc12` gave an IC50 of 48.6 µM.
The same measure, in the same setting: to `O=S(=O)(Oc1cccc2cccnc12)c1ccccc1` belongs 49.5 µM.
The same measure, in the same setting: the figure for `O=[N+]([O-])c1cccc(S(=O)(=O)Oc2cccc3cccnc23)c1` is 30.1 µM; for `O=S(=O)(Nc1cccc2ncccc12)c1cc(Cl)cc(Cl)c1O` it is 1.6 µM.
Same read-out and setting: to `COc1ccc(-c2nc3ccccc3c(=O)[nH]2)cc1` belongs 1.1 µM.
In turn, `COc1ccc(Br)cc1S(=O)(=O)Nc1cccc2ncccc12` registered a 50% inhibitory concentration (IC50) of 50.2 µM.
The same measure, in the same setting: the figure for `O=[N+]([O-])c1ccc(S(=O)(=O)Nc2cccc3cccnc23)cc1` is 31.3 µM.
The same measure, in the same setting: to `O=S(=O)(Nc1cccc2cccnc12)c1ccc(Cl)cc1` belongs 33.4 µM; to `Cc1cc(S(=O)(=O)Nc2cnc3ccccc3c2)c(C)cc1Cl`, 34.4 µM.
Still for that read-out and setting: the figure for `O=S(=O)(Nc1cccc2cccnc12)c1ccc(Cl)cc1Cl` is 6.1 µM; for `O=[N+]([O-])c1ccccc1S(=O)(=O)Nc1cccc2cccnc12` it is 18.2 µM; for `CCCc1ccc(S(=O)(=O)Nc2cccc3ncccc23)cc1` it is 75.1 µM.
On to `COc1ccc(S(=O)(=O)Nc2cccc3ncccc23)cc1OC`, for which the IC50 turned out to be 43.2 µM.
On the same count and under the same terms, the figure for `Cc1cc(S(=O)(=O)Oc2cccc3cccnc23)c(C)cc1Cl` is 41.6 µM.
On to `COc1ccc(Br)cc1S(=O)(=O)Nc1cccc2cccnc12`, for which it took 68.5 µM to reach half-maximal inhibition (IC50).
The same measure, in the same setting: to `O=[N+]([O-])c1cccc(S(=O)(=O)Nc2cccc3cccnc23)c1` belongs 16.1 µM.
On the same count and under the same terms, to `COc1ccc(Br)cc1S(=O)(=O)Oc1cccc2cccnc12` belongs 49.5 µM; to `O=S(=O)(Nc1cnc2ccccc2c1)c1ccc(Cl)cc1Cl`, 8.4 µM.
Consider `CCCc1ccc(S(=O)(=O)Nc2cccc3cccnc23)cc1`, for which the IC50 worked out at 70.5 µM.
On the same count and under the same terms, the figure for `COc1ccc(S(=O)(=O)Nc2cnc3ccccc3c2)cc1OC` is 33.5 to 53.6 µM.
Still for that read-out and setting: the figure for `Cc1cc(S(=O)(=O)Nc2cccc3ncccc23)c(C)cc1Cl` is 23.5 µM.

Another assay concerns the target T2, Beta-glucuronidase (Bos taurus) (UniProt A3KMY8).
T2 sequence (whole entry): T1 sequence (A3KMY8 whole entry)
Briefly: Potency index, ratio of saccharic acid 1,4-lactone IC50 to test compound IC50 for bovine liver beta-glucuronidase.
On to `O=S(=O)(Nc1cccc2ncccc12)c1ccc(Cl)cc1Cl`, for which the Ratio IC50 was 24.
Still for that read-out and setting: to `O=S(=O)(Nc1cccc2ncccc12)c1cc(Cl)cc(Cl)c1O` belongs 30.
For the compound `O=S(=O)(Nc1cccc2cccnc12)c1ccc(Cl)cc1Cl`, the Ratio IC50 came to 8.
Same read-out and setting: the figure for `O=[N+]([O-])c1ccccc1S(=O)(=O)Nc1cccc2cccnc12` is 3.
As for `O=[N+]([O-])c1cccc(S(=O)(=O)Nc2cccc3cccnc23)c1`, the Ratio IC50 is 3.
On the same count and under the same terms, to `O=S(=O)(Nc1cnc2ccccc2c1)c1ccc(Cl)cc1Cl` belongs 6.
